Here are results for two compounds from US20180036330A1, “NUCLEOTIDE PHOSPHORAMIDATE FORMULATION” (priority 2015, published 2018).

Structures are written as SMILES. ≈ marks a conversion by molar mass, not a printed value. Like-named read-outs stand apart in the source and are kept apart here.

The subject of data set [1] is HCV replicon (NS3-NS5B regions of HCV type 1 b) in Huh-7 luc/neo cells. The data set can be described thus: HCV replicon assay (Huh-Luc, luciferase). The data set is classed as cell-based. The note with it: Hepatitis C virus, Huh-7, 72 h, three days incubation, luciferase activity, n>10. The source says:
The compositions of the invention may be examined for activity in the inhibition of HCV RNA replication in a cellular assay aimed at identifying compounds that inhibit a HCV functional cellular replicating cell line, also known as HCV replicons. A suitable cellular assay is based on a bicistronic expression construct, as described by Lohmann et al. (1999), Science vol. 285 pp. 110-113 with modifications described by Krieger et al. (2001), Journal of Virology 75: 4614-4624, in a multi-target screening strategy.
The assay utilizes the stably transfected cell line Huh-7 luc/neo (hereafter referred to as Huh-Luc). […]
The replicon cells are plated in 384 well plates in the presence of the test and control compounds which are added in various concentrations. Following an incubation of three days, HCV replication is measured by assaying luciferase activity (using standard luciferase assay substrates and reagents and a Perkin Elmer ViewLux™ ultraHTS microplate imager). […] The inhibitory activity of a compound on luciferase activity is monitored on the Huh-Luc cells, enabling a dose-response curve for each test compound. […]
On the technique in general: Replicon systems follow genome replication, usually without infectious particles.

The subject of data set [2] is Huh-Luc cell line. Briefly: Cell toxicity in the Huh-Luc cell line. The data set is classed as cell-based.
A short description of data set [3]: Basket dissolution test USP method 711 of Compound 1 in hard gelatin capsule (Example 3). In kind it is physicochemical. The note with it: for Mean % Compound 1 released: n = 2. How it is done:
Dissolution test. 350 mg of Compound 1 was filled into a hard gelatin capsule. A basket dissolution test was performed according to USP method 711, at 100 rpm at 37° C., 900 g media, 5 ml sampling after 20, 45, 90 minutes. Samples were analysed by RP-UPLC. […] The lump was very sticky when wet but dried to a hard lump in air.

Data set [4] is described as follows: Solubility of Compound 1 in ethanol. The note with it: for solubility: 99% ethanol, organic solvent or mixture, heated to 50-60° C., transparent syrup, read-out: solubility in ethanol: final concentration fully dissolved. The data set is classed as physicochemical. As to the method:
100.43 mg of Compound 1 was weighed into a glass vial. 37 μl of 99% ethanol was added so that final concentration was 2700 mg/ml. The formulation was heated to 50-60° C. during gentle agitation until the drug substance was fully dissolved. A transparent syrup was obtained and the solution remained transparent after cooling and storage at room temperature for more than 48 hours with no visible crystals.
200.26 mg of Compound 1 was weighed into a glass vial. 67 μl of 99% ethanol was added so that final concentration was 3000 mg/ml. The formulation was heated to 50-60° C. during gentle agitation until the drug substance was fully dissolved. A transparent syrup was obtained.

For data set [5] the following is noted: solvent not given, context ethanol, cited from earlier work.

For orientation: EC50 means the concentration at which the effect is half-maximal. High values mean a less potent agent, low ones a more potent agent.

Compound `CC(C)OC(=O)[C@H](C)N[P@](=O)(OC[C@H]1O[C@@H](n2ccc(=O)[nH]c2=O)[C@@](F)(Cl)[C@@H]1O)Oc1ccccc1` [Compound 1, (S)-Isopropyl 2-(((S)-(((2R,3R,4S,5R)-4-chloro-5-(2,4-dioxo-3,4-dihydropyrimidin-1(2H)-yl)-4-fluoro-3-hydroxytetrahydrofuran-2-yl)methoxy)(phenoxy)phosphoryl)amino)propanoate] returned an EC50 in data set [1] of 55 nM. This compound registered a cell toxicity in data set [2] of more than 50 µM. Besides, the “Mean % Compound 1 released” value in data set [3] (0.1M HCl, 20 min, 350 mg in hard gelatin capsule, 37° C., 100 rpm) amounted to 2%; in data set [3] (0.1M HCl, 45 min, 350 mg in hard gelatin capsule), 3%; in data set [3] (0.1M HCl, 90 min, 350 mg in hard gelatin capsule) it was 5%; in data set [3] (FaSSIF, 20 min, 350 mg in hard gelatin capsule), 2%; in data set [3] (FaSSIF, 45 min, 350 mg in hard gelatin capsule) it was 5%; in data set [3] (FaSSIF, 90 min, 350 mg in hard gelatin capsule) it was 8%. Also, the “observation of capsule during dissolution test” value in data set [3] (350 mg in hard gelatin capsule, 90 min) is reported as “water insoluble lump that did not dissolve or change much during 90 min”. In addition, in data set [3] (lump formed from capsule, 70% EtOH), the “solubility of the lump in 70% EtOH” value is reported as “surprisingly soluble”. In addition, the “time solution remained transparent with no visible crystals” value in data set [4] (2700 mg/ml in 99% ethanol, after cooling, storage at room temperature) was “more than 48 hours”. Also, the “appearance after cooling and storage at room temperature” value in data set [4] (3000 mg/ml in 99% ethanol) is listed as “solidified to a slightly opaque semisolid with no visible crystals”. Also, the solubility amounted to 2700 mg/mL (≈ 4910 mM) in data set [4] (100.43 mg in 37 μl 99% ethanol) and 3000 mg/mL (≈ 5460 mM) in data set [4] (200.26 mg in 67 μl 99% ethanol).
On to `CC(C)OC(=O)[C@H](C)N[P@](=O)(OC[C@H]1O[C@@H](n2ccc(=O)[nH]c2=O)[C@](C)(F)[C@@H]1O)Oc1ccccc1` [sofosbuvir], for which the published solubility in data set [5] (Cayman Chemical item no 15402 and Apex BT Catalog no. A3738) is 25 mg/mL; in data set [5] (Selleckchem Catalog no S2794), 100 mg/mL.
